“And” between values parts separate entries of the source, which are not always exact repeats. Equal values may be shown once. Inconclusive results and toxic doses are left out. The calls were made as follows: active = survival T/C of 150% or more; inactive = T/C below 125% in these data.
Tested on: AKR/Lw mice, AKR lymphoma ip, median survival T/C
Test: NCI In Vivo Anticancer Drug Screen. Data for tumor model Lymphoma AKR (Transplanted) (intraperitoneal) in AKR/Lw mice
Conditions: endpoint: median survival time, higher = longer survival
Procedure: The antitumor activity of compounds was measured in mice bearing transplantable tumors. Survival or tumor size were measured and the results are expressed as the measurement made in the treated group (T) divided by the measurement made in the vehicle treated control group (C). The tumor model used in this assay is Lymphoma AKR (Transplanted) (intraperitoneal) in AKR/Lw mice

[1] = dose: 3.0 mg/kg/injection, schedule: Q01DX009 (ip), vehicle: saline
[2] = dose: 5.0 mg/kg/injection, schedule: Q01DX009 (ip), vehicle: saline
[3] = dose: 10.0 mg/kg/injection, schedule: Q01DX009 (ip), vehicle: saline
[4] = dose: 12.5 mg/kg/injection, schedule: Q01DX001 (ip), vehicle: saline
[5] = dose: 16.0 mg/kg/injection, schedule: Q01DX009 (ip), vehicle: saline
[6] = dose: 20.0 mg/kg/injection, schedule: Q01DX009 (ip), vehicle: saline

Measured: T/C

O=NN(CCCl)C(=O)NCCCl
active: dose: 4.0 mg/kg/injection, schedule: Q04DX004 (ip), vehicle: saline 153 % of control | [2] 333 % of control | dose: 8.0 mg/kg/injection, schedule: Q04DX004 (ip), vehicle: saline 171 % of control | dose: 16.0 mg/kg/injection, schedule: Q04DX004 (ip), vehicle: saline 168 % of control
inactive: dose: 0.12 mg/kg/injection, schedule: Q01DX009 (ip), vehicle: saline 105 % of control | dose: 0.25 mg/kg/injection, schedule: Q01DX009 (ip), vehicle: saline 87 % of control and 107 % of control | dose: 0.25 mg/kg/injection, schedule: Q04DX003 (ip), vehicle: saline 90 % of control and 97 % of control | dose: 0.5 mg/kg/injection, schedule: Q04DX004 (ip), vehicle: saline 96 % of control | dose: 1.0 mg/kg/injection, schedule: Q04DX004 (ip), vehicle: saline 108 % of control and 112 % of control | dose: 1.5 mg/kg/injection, schedule: Q04DX003 (ip), vehicle: saline 107 % of control | dose: 1.5 mg/kg/injection, schedule: Q07DX003 (ip), vehicle: saline 87 % of control and 118 % of control | dose: 2.5 mg/kg/injection, schedule: Q04DX003 (ip), vehicle: saline 93 % of control | dose: 3.0 mg/kg/injection, schedule: Q01DX001 (ip), vehicle: saline 100 % of control and 114 % of control | [1] 87 % of control | dose: 3.0 mg/kg/injection, schedule: Q04DX003 (ip), vehicle: saline 86 % of control | dose: 3.0 mg/kg/injection, schedule: Q07DX003 (ip), vehicle: saline 109 % of control and 121 % of control | dose: 3.13 mg/kg/injection, schedule: Q04DX003 (ip), vehicle: water 98 % of control | dose: 3.75 mg/kg/injection, schedule: Q01DX001 (ip), vehicle: saline 117 % of control | dose: 5.0 mg/kg/injection, schedule: Q01DX001 (ip), vehicle: saline 93 % of control and 100 % of control and 103 % of control | dose: 5.0 mg/kg/injection, schedule: Q04DX003 (ip), vehicle: saline 103 % of control | dose: 5.0 mg/kg/injection, schedule: Q10DX004 (ip), vehicle: saline 103 % of control | dose: 6.0 mg/kg/injection, schedule: Q04DX003 (ip), vehicle: saline 97 % of control | dose: 6.0 mg/kg/injection, schedule: Q07DX003 (ip), vehicle: saline 100 % of control and 118 % of control | dose: 6.2 mg/kg/injection, schedule: Q01DX001 (ip), vehicle: saline 106 % of control | dose: 6.25 mg/kg/injection, schedule: Q04DX003 (ip), vehicle: water 124 % of control | dose: 7.5 mg/kg/injection, schedule: Q01DX001 (ip), vehicle: saline 118 % of control | [3] 97 % of control | dose: 10.0 mg/kg/injection, schedule: Q04DX003 (ip), vehicle: saline 106 % of control | dose: 10.0 mg/kg/injection, schedule: Q10DX004 (ip), vehicle: saline 111 % of control | dose: 10.0 mg/kg/injection, schedule: Q14DX003 (ip), vehicle: saline 123 % of control | [4] 118 % of control | dose: 12.5 mg/kg/injection, schedule: Q04DX003 (ip), vehicle: water 88 % of control | dose: 15.0 mg/kg/injection, schedule: Q10DX004 (ip), vehicle: saline 113 % of control | dose: 15.0 mg/kg/injection, schedule: Q14DX003 (ip), vehicle: saline 98 % of control | [5] 97 % of control | [6] 97 % of control | dose: 20.0 mg/kg/injection, schedule: Q10DX004 (ip), vehicle: saline 101 % of control | dose: 20.0 mg/kg/injection, schedule: Q14DX003 (ip), vehicle: saline 115 % of control | dose: 24.0 mg/kg/injection, schedule: Q01DX001 (ip), vehicle: saline 86 % of control | dose: 25.0 mg/kg/injection, schedule: Q04DX003 (ip), vehicle: water 108 % of control | dose: 32.0 mg/kg/injection, schedule: Q04DX004 (ip), vehicle: saline 103 % of control | dose: 45.0 mg/kg/injection, schedule: Q01DX001 (ip), vehicle: saline 54 % of control and 95 % of control | dose: 60.0 mg/kg/injection, schedule: Q01DX001 (ip), vehicle: saline 23 % of control and 86 % of control

CS(=O)(=O)OCCCCOS(C)(=O)=O
inactive: dose: 0.5 mg/kg/injection, schedule: Q01DX009 (ip), vehicle: Klucel (hydroxypropylcellulose) (HPC) 100 % of control | dose: 0.75 mg/kg/injection, schedule: Q01DX009 (ip), vehicle: saline 112 % of control | dose: 1.0 mg/kg/injection, schedule: Q01DX009 (ip), vehicle: Klucel (hydroxypropylcellulose) (HPC) 120 % of control | dose: 1.5 mg/kg/injection, schedule: Q01DX009 (ip), vehicle: saline 116 % of control | dose: 2.0 mg/kg/injection, schedule: Q01DX009 (ip), vehicle: Klucel (hydroxypropylcellulose) (HPC) 120 % of control | dose: 2.5 mg/kg/injection, schedule: Q01DX009 (ip), vehicle: saline 112 % of control | [1] 108 % of control | dose: 3.75 mg/kg/injection, schedule: Q01DX009 (ip), vehicle: saline 100 % of control and 116 % of control | dose: 4.0 mg/kg/injection, schedule: Q01DX009 (ip), vehicle: Klucel (hydroxypropylcellulose) (HPC) 107 % of control | dose: 5.0 mg/kg/injection, schedule: Q01DX009 (ip), vehicle: Klucel (hydroxypropylcellulose) (HPC) 102 % of control | [2] 96 % of control | dose: 7.5 mg/kg/injection, schedule: Q01DX009 (ip), vehicle: saline 86 % of control and 89 % of control | dose: 8.0 mg/kg/injection, schedule: Q01DX009 (ip), vehicle: Klucel (hydroxypropylcellulose) (HPC) 100 % of control | dose: 8.0 mg/kg/injection, schedule: Q01DX009 (ip), vehicle: saline 115 % of control | [3] 104 % of control | dose: 10.0 mg/kg/injection, schedule: Q04DX003 (ip), vehicle: Klucel (hydroxypropylcellulose) (HPC) 104 % of control | [4] 102 % of control and 110 % of control (2×) | dose: 12.5 mg/kg/injection, schedule: Q01DX009 (ip), vehicle: Klucel (hydroxypropylcellulose) (HPC) 89 % of control | dose: 12.5 mg/kg/injection, schedule: Q01DX009 (ip), vehicle: saline 87 % of control | dose: 15.0 mg/kg/injection, schedule: Q01DX009 (ip), vehicle: saline 105 % of control | [5] 103 % of control | [6] 113 % of control | dose: 20.0 mg/kg/injection, schedule: Q04DX003 (ip), vehicle: Klucel (hydroxypropylcellulose) (HPC) 91 % of control | dose: 25.0 mg/kg/injection, schedule: Q01DX001 (ip), vehicle: saline 97 % of control and 100 % of control and 114 % of control | dose: 25.0 mg/kg/injection, schedule: Q01DX009 (ip), vehicle: Klucel (hydroxypropylcellulose) (HPC) 89 % of control | dose: 25.0 mg/kg/injection, schedule: Q01DX009 (ip), vehicle: saline 89 % of control | dose: 25.0 mg/kg/injection, schedule: Q04DX003 (ip), vehicle: other 108 % of control | dose: 25.0 mg/kg/injection, schedule: Q04DX003 (ip), vehicle: saline 101 % of control | dose: 30.0 mg/kg/injection, schedule: Q01DX009 (ip), vehicle: saline 104 % of control | dose: 37.5 mg/kg/injection, schedule: Q04DX003 (ip), vehicle: saline 90 % of control | dose: 40.0 mg/kg/injection, schedule: Q04DX003 (ip), vehicle: Klucel (hydroxypropylcellulose) (HPC) 100 % of control | dose: 50.0 mg/kg/injection, schedule: Q01DX009 (ip), vehicle: Klucel (hydroxypropylcellulose) (HPC) 89 % of control | dose: 50.0 mg/kg/injection, schedule: Q04DX003 (ip), vehicle: other 104 % of control | dose: 50.0 mg/kg/injection, schedule: Q04DX003 (ip), vehicle: saline 109 % of control | dose: 100.0 mg/kg/injection, schedule: Q01DX001 (ip), vehicle: saline 97 % of control and 105 % of control | dose: 100.0 mg/kg/injection, schedule: Q04DX003 (ip), vehicle: Klucel (hydroxypropylcellulose) (HPC) 100 % of control | dose: 100.0 mg/kg/injection, schedule: Q04DX003 (ip), vehicle: other 91 % of control | dose: 100.0 mg/kg/injection, schedule: Q04DX003 (ip), vehicle: saline 92 % of control | dose: 200.0 mg/kg/injection, schedule: Q01DX001 (ip), vehicle: saline 97 % of control | dose: 200.0 mg/kg/injection, schedule: Q04DX003 (ip), vehicle: Klucel (hydroxypropylcellulose) (HPC) 105 % of control | dose: 400.0 mg/kg/injection, schedule: Q04DX003 (ip), vehicle: Klucel (hydroxypropylcellulose) (HPC) 100 % of control | dose: 600.0 mg/kg/injection, schedule: Q01DX001 (ip), vehicle: Klucel (hydroxypropylcellulose) (HPC) 106 % of control

From PubChem BioAssay AID190 (DTP/NCI, 2004)
